In patent publication US20190375778A1, “ADENOSINE DERIVATIVES FOR USE IN THE TREATMENT OF CANCER” (NuCana plc, priority 2016, published 2019):
Like-named read-outs stand apart in the source and are kept apart here.

Tests used:
MCF7 = assay: MTT cytotoxicity assay, MCF7; assay type: cell-based; conditions: Homo sapiens, 96 h compound exposure, read-out: absolute IC50, MCF7
Source text: (§1) Lovo: cell line derived from a metastatic site in a patient with colon cancer MCF7: human oestrogen sensitive mammary epithelial cell line PC3: human prostate cancer cell line A549: cancerous lung tissue derived cells L1210: lymphoblast cell line derived from a mouse with lymphocytic leukaemia FM3A: mammary carcinoma murine cells CEM: human T-lymphoblasts, derived from the blood of a patient with acute lymphoblastic leukaemia HeLa: epithelial cells from a patient with cervical adenocarcinoma
(§2) Anti-tumour evaluation in MCF7, LoVo, A549 and PC3 cell lines was performed by MTT assay. Compounds were prepared as 0.1-100 mM stock solutions dissolved in DMSO and stored at −20° C. Cells were seeded into 96-well microtitre plates at a density of 5×10^3 cells per well and allowed 24 hours to adhere. Decimal compound dilutions were prepared in medium immediately prior to each assay (final concentration 0.1-100 μM). Experimental medium was DMEM+10% FCS (PC3 and Lovo) or RPMI+10% heat inactivated FCS (A549 and MCF7). Following 96 h compound exposure at 37° C., 5% CO2, MTT reagent (Sigma Aldrich) was added to each well (final concentration 0.5 mg/ml). Incubation at 37° C. for 4 h allowed reduction of MTT by viable cells to an insoluble formazan product. MTT was removed and formazan solubilised by addition of 10% Triton X-100 in PBS. Absorbance was read on a Tecan Sunrise spectrophotometer at 540 nm as a measure of cell viability; thus inhibition relative to control was determined (IC50).

MDAMB231 = assay: CellTiterGlo viability assay, MDAMB231; assay type: cell-based, Human; conditions: for IC50: Homo sapiens, read-out: IC50 MDAMB231
Experimental: In vitro viability assay were performed to assess the effects of compounds on cell viability in selected cell lines over ˜72 hrs using the CellTiterGlo (CTG, Promega-G7573) assay. The tests were performed in duplicates with treatment of compounds at 9 points, 3.16 folds titration in 96 well plates over ˜72 hrs. The compound starting concentrations were 198 μM. Cell viability assay using CellTiterGlo in 96-well plate were performed. Compound treatment 72 hrs, standard growth conditions, duplicates. Compounds were dissolved to 40 mM with thawed […]. Compounds were serially diluted at 3.16 fold in thawed DMSO, and warmed to 37° C. before being dissolved in media (2 μl+200 μl). After compounds were dissolved in media, media containing compounds were warmed to 37° C. in incubator and then compounds in media were added to cell plates (50 μl+50 μl) in duplicates. The compounds' final concentrations were from […] to 19.9 nM. All compound solubilities were checked and recorded again, then the plates were transferred to CO2 tissue culture incubator immediately and incubated for 3 days. DMSO final concentration is 0.5%.

PC3 = assay: MTT cytotoxicity assay, PC3; assay type: cell-based; conditions: Homo sapiens, PC-3, 96 h compound exposure, read-out: absolute IC50, PC3
Source text: as §1, §2

CTS = assay: ATP ViaLight cytotoxicity assay, CTS; assay type: cell-based; conditions: 72 h
Experimental: HL-60, CTS, and K-562 are leukaemia cell lines, which were obtained from the American Type Culture Collection (ATCC), Middlesex. HL-60 cell line is of acute promyelocytic leukaemia; CTS cell line is of acute myeloid leukaemia; and K-562 cell line is of chronic myeloid leukaemia.
HL-60, CTS, and K-562 cell lines were cultured in RPMI-1640 medium (Sigma Aldrich, UK), which was supplemented with 10% Fetal Bovine Serum (FBS) (PAA Laboratories), 1% amphotericin B (5.5 ml) and 1% penicillin/streptomycin (5.5 ml) (PAA Laboratories) and grown in flasks at 37° C. incubator with 5% CO2.
For inhibitor studies the cell lines were treated in the same way as described above but before treatment with drugs, a number of inhibitors were added: • 1) Nitrobenzylthioinosine (NBTI) (Sigma-Aldrich, St. Louis, Mo.) inhibits hENT1. • 2) A-134974 dihydrochloride hydrate (Sigma-Aldrich, St. Louis, Mo.) inhibits adenosine kinase. • 3) EHNA hydrochloride (Sigma-Aldrich, St. Louis, Mo.) inhibits adenosine deaminase.
[…] For inhibitor studies, 10 M concentration of each inhibitor was added before drugs and incubated for 72 hours at 37° C. with 5% CO2.
After incubation, 50 μl of cell lysis reagent was added to the 96 well plates to release the intracellular ATP, followed by 100 μl of ATP monitoring reagent (AMR). The luminescent values of each well were determined using FLUOstar OPTIMA microplate reader (BMG Labtech) which converted ATP into light by using luciferase enzyme.
(§3) The dose-response curves of cytotoxicity of the drugs was determined using non-linear regression analysis of percentage cell viability versus concentration and EC50 values were obtained. The intracellular assay was conducted in five repeats for each condition. Intracellular assay was determined using paired T test (two-tailed) analysis of 8-ChloroATP/ATP concentration and p values were obtained. Drug stability in human plasma was determined using two-way ANOVA analysis. For all the analysis, Prism Software program (GraphPad Software) was used.

[1] = Drug stability in human plasma with or without EHNA; assay type: in vitro ADME; conditions: for plasma concentration compared with the other compounds: human plasma, with or without EHNA
Experimental: 10 ml of human plasma sample (Sera laboratories, UK) was treated with 1 μM of EHNA. 1 ml from this was taken along with 1 μl of 20 µM concentration of each drug (8-Cl-A, compound A, compound B and compound D) which was added to new tubes and incubated for 2 hours at 37° C. with 5% CO2. After incubation, 100 μl of each sample was taken and 300 μl of 100% methanol was added and left on ice for 30 minutes. After 30 minutes, the mixture was centrifuged (14000 rpm, 4° C., 10 minutes), the supernatant was transferred to new tubes and evaporated under speed vac. Then the dried pellet was reconstituted in 100 μl of 10% Acetonitrile and transferred to LC-MS vials for injection in to the UPLC-MS/MS system.
as §3

[2] = with A-134974 (adenosine kinase inhibitor)

## CC(C)C[C@H](NP(=O)(OC[C@H]1O[C@@H](n2c(Cl)nc3c(N)ncnc32)C(O)C1O)Oc1ccccc1)C(=O)OCc1ccccc1 (stereo partly drawn) [V, 5′-([(Benzyloxy-L-leucin-N-yl)-phenyl]-phosphatyl) 8-chloroadenosine]
MCF7
  IC50: 0.1 to 5 µM
MDAMB231; CellTiterGlo, 72 hrs
  MI% MDAMB231: 99%
MDAMB231; MDA-MB-231, 72 h
  IC50: 15 to 100 µM
PC3
  IC50: 0.1 to 5 µM

## C[C@H](NP(=O)(OC[C@H]1O[C@@H](n2c(Cl)nc3c(N)ncnc32)[C@H](O)[C@@H]1O)Oc1ccccc1)C(=O)OCc1ccccc1 (mixture of isomers) [C, (2S)-Benzyl 2-(((((2R,3S,4R,5R)-5-(6-amino-8-chloro-9H-purin-9-yl)-3,4-dihydroxy-tetrahydrofuran-2-yl)methoxy)(phenoxy)phosphoryl)amino)propanoate]
MCF7
  IC50: 15 to 100 µM
PC3
  IC50: 0.1 to 5 µM

## Nc1ncnc2c1nc(Cl)n2[C@@H]1O[C@H](COP(=O)(NCC(=O)OC2CCCCC2)Oc2ccccc2)[C@@H](O)[C@H]1O (mixture of isomers) [Compound A, Cyclohexyl 2-(((((2R,3S,4R,5R)-5-(6-amino-8-chloro-9H-purin-9-yl)-3,4-dihydroxy-tetrahydrofuran-2-yl)methoxy)(phenoxy)phosphoryl)amino)acetate]
CTS; [2]
  EC50: 28 µM
CTS; with NBTI (hENT1 inhibitor)
  EC50: 270 µM
MCF7
  IC50: 15 to 100 µM
PC3
  IC50: 15 to 100 µM

## Nc1ncnc2c1nc(Cl)n2[C@@H]1O[C@H](COP(=O)(NCC(=O)OCc2ccccc2)Oc2ccccc2)[C@@H](O)[C@H]1O (mixture of isomers) [Compound B, Benzyl 2-(((((2R,3S,4R,5R)-5-(6-amino-8-chloro-9H-purin-9-yl)-3,4-dihydroxytetra-hydrofuran-2-yl)methoxy)(phenoxy)phosphoryl)amino)acetate]
CTS; Control (no inhibitor)
  EC50: 16.3 µM
CTS; with NBTI (hENT1 inhibitor)
  EC50: 63.9 µM
MCF7
  IC50: 15 to 100 µM
MDAMB231; CellTiterGlo, 72 hrs
  MI% MDAMB231: 76%
MDAMB231; MDA-MB-231, 72 h
  IC50: 5 to 15 µM
[1]
  plasma concentration compared with the other compounds: low plasma concentration
PC3
  IC50: 0.1 to 5 µM

## C[C@H](NP(=O)(OC[C@H]1O[C@@H](n2c(Cl)nc3c(N)ncnc32)C(O)C1O)Oc1cccc2ccccc12)C(=O)OCc1ccccc1 (stereo partly drawn) [Compound D, (2S)-Benzyl 2-(((((2R,3S,4R,5R)-5-(6-amino-8-chloro-9H-purin-9-yl)-3,4-dihydroxy-tetrahydrofuran-2-yl)methoxynaphthalene-1-yloxy)phosphoryl)amino)propanoate]
CTS; Control (no inhibitor)
  EC50: 2.64 µM
CTS; [2]
  EC50: 10.3 µM
CTS; with NBTI (hENT1 inhibitor)
  EC50: 1.46 µM
[1]
  plasma concentration compared with the other compounds: highest plasma concentration

## Nc1ncnc2c1nc(Cl)n2[C@@H]1O[C@H](CO)[C@@H](O)[C@H]1O [8-chloroadenosine, 8-Chloroadenosine, reference compound]
CTS; Control (no inhibitor)
  EC50: 0.32 µM
CTS; with NBTI (hENT1 inhibitor)
  EC50: 5.48 µM
MCF7
  IC50: 0.1 to 5 µM
MDAMB231; CellTiterGlo, 72 hrs
  MI% MDAMB231: 74%
MDAMB231; MDA-MB-231, CellTiterGlo, 72 hrs
  IC50: 0.1 to 5 µM
[1]; EHNA versus control
  fold increase in human plasma concentration when adenosine deaminase was inhibited by EHNA: ~3 fold
PC3
  IC50: 0.1 to 5 µM
